pIC50: −log10 of the molar value.
Legend:
DU-145 = test: Cytotoxicity against human DU145 cells assessed as cell growth at 10 uM after 48 hrs by sulforhodamine B assay relative to control; format: functional; details: DU-145, 48 h, read-out: Activity
KM12 [1] = test: Cytotoxicity against human KM12 cells assessed as cell growth at 1 uM after 48 hrs by sulforhodamine B assay relative to control; format: functional; details: KM12, 48 h, read-out: Activity
T47D = test: Cytotoxicity against human T47D cells assessed as cell growth at 10 uM after 48 hrs by sulforhodamine B assay relative to control; format: functional; details: read-out: Activity
UO-31 = test: Cytotoxicity against human UO31 cells assessed as cell growth at 10 uM after 48 hrs by sulforhodamine B assay relative to control; format: functional; details: UO-31, 48 h, read-out: Activity
MCF7 [2] = test: Cytotoxicity against human MCF7 cells assessed as cell growth at 10 uM after 48 hrs by sulforhodamine B assay relative to control; format: functional; details: MCF7, 48 h, read-out: Activity
SK-OV-3 [3] = test: Cytotoxicity against human SKOV3 cells assessed as cell growth at 1 uM after 48 hrs by sulforhodamine B assay relative to control; format: functional; details: SK-OV-3, 48 h, read-out: Activity
MDA-MB-468 [4] = test: Cytotoxicity against human MDA-MB-468 cells assessed as cell growth at 10 uM after 48 hrs by sulforhodamine B assay relative to control; format: functional; details: MDA-MB-468, 48 h, read-out: Activity
RXF 393 [5] = test: Cytotoxicity against human RXF393 cells assessed as cell growth at 0.1 uM after 48 hrs by sulforhodamine B assay relative to control; format: functional; details: RXF 393, 48 h, read-out: Activity
SNB-75 = test: Cytotoxicity against human SNB75 cells assessed as cell growth at 0.01 uM after 48 hrs by sulforhodamine B assay relative to control; format: functional; details: SNB-75, 48 h, read-out: Activity
Malme-3M [6] = test: Cytotoxicity against human MALME-3M cells assessed as cell growth at 0.01 uM after 48 hrs by sulforhodamine B assay relative to control; format: functional; details: read-out: Activity
KM12 [7] = test: Cytotoxicity against human KM12 cells assessed as cell growth at 100 uM after 48 hrs by sulforhodamine B assay relative to control; format: functional; details: KM12, 48 h, read-out: Activity
HCT-116 [8] = test: Cytotoxicity against human HCT116 cells assessed as cell growth at 0.1 uM after 48 hrs by sulforhodamine B assay relative to control; format: functional; details: HCT-116, 48 h, read-out: Activity
SNB-19 [9] = test: Cytotoxicity against human SNB19 cells assessed as cell growth at 1 uM after 48 hrs by sulforhodamine B assay relative to control; format: functional; details: SNB-19, 48 h, read-out: Activity
Malme-3M [10] = test: Cytotoxicity against human MALME-3M cells assessed as cell growth at 100 uM after 48 hrs by sulforhodamine B assay relative to control; format: functional; details: read-out: Activity
COLO 205 [11] = test: Cytotoxicity against human COLO205 cells assessed as cell growth at 10 uM after 48 hrs by sulforhodamine B assay relative to control; format: functional; details: COLO 205, 48 h, read-out: Activity
K562 = test: Cytotoxicity against human K562 cells assessed as cell growth at 1 uM after 48 hrs by sulforhodamine B assay relative to control; format: functional; details: K562, 48 h, read-out: Activity
RXF 393 [12] = test: Cytotoxicity against human RXF393 cells assessed as cell growth at 100 uM after 48 hrs by sulforhodamine B assay relative to control; format: functional; details: RXF 393, 48 h, read-out: Activity
KM12 [13] = test: Cytotoxicity against human KM12 cells assessed as cell growth at 0.01 uM after 48 hrs by sulforhodamine B assay relative to control; format: functional; details: KM12, 48 h, read-out: Activity
NCI/ADR-RES [14] = test: Cytotoxicity against human NCI/ADR-RES cells assessed as cell growth at 100 uM after 48 hrs by sulforhodamine B assay relative to control; format: functional; details: read-out: Activity
COLO 205 [15] = test: Cytotoxicity against human COLO205 cells assessed as growth inhibition after 48 hrs by sulforhodamine B assay; format: functional; details: COLO 205, 48 h
MDA-MB-468 [16] = test: Cytotoxicity against human MDA-MB-468 cells assessed as cell growth at 0.1 uM after 48 hrs by sulforhodamine B assay relative to control; format: functional; details: MDA-MB-468, 48 h, read-out: Activity
MCF7 [17] = test: Cytotoxicity against human MCF7 cells assessed as growth inhibition after 48 hrs by MTT assay; format: functional, cell-based; details: MCF7, 48 h
NCI/ADR-RES [18] = test: Cytotoxicity against human NCI/ADR-RES cells assessed as cell growth at 0.1 uM after 48 hrs by sulforhodamine B assay relative to control; format: functional; details: read-out: Activity
SK-OV-3 [19] = test: Cytotoxicity against human SKOV3 cells assessed as growth inhibition after 48 hrs by sulforhodamine B assay; format: functional; details: SK-OV-3, 48 h
MDA-MB-435 = test: Cytotoxicity against human MDA-MB-435 cells assessed as cell growth at 10 uM after 48 hrs by sulforhodamine B assay relative to control; format: functional; details: MDA-MB-435, 48 h, read-out: Activity
SR = test: Cytotoxicity against human SR cells assessed as cell growth at 100 uM after 48 hrs by sulforhodamine B assay relative to control; format: functional; details: read-out: Activity
SN12C = test: Cytotoxicity against human SN12C cells assessed as cell growth at 10 uM after 48 hrs by sulforhodamine B assay relative to control; format: functional; details: read-out: Activity
NCI-H522 = test: Cytotoxicity against human NCI-H522 cells assessed as growth inhibition after 48 hrs by sulforhodamine B assay; format: functional; details: NCI-H522, 48 h
HCT-116 [20] = test: Cytotoxicity against human HCT116 cells assessed as cell growth at 1 uM after 48 hrs by sulforhodamine B assay relative to control; format: functional; details: HCT-116, 48 h, read-out: Activity
SNB-19 [21] = test: Cytotoxicity against human SNB19 cells assessed as cell growth at 100 uM after 48 hrs by sulforhodamine B assay relative to control; format: functional; details: SNB-19, 48 h, read-out: Activity
U-251 = test: Cytotoxicity against human U251 cells assessed as cell growth at 0.01 uM after 48 hrs by sulforhodamine B assay relative to control; format: functional; details: U-251, 48 h, read-out: Activity
NCI-H460 = test: Cytotoxicity against human NCI-H460 cells assessed as cell growth at 100 uM after 48 hrs by sulforhodamine B assay relative to control; format: functional; details: NCI-H460, 48 h, read-out: Activity
BT-549 = test: Cytotoxicity against human BT549 cells assessed as cell growth at 1 uM after 48 hrs by sulforhodamine B assay relative to control; format: functional; details: BT-549, 48 h, read-out: Activity
UACC-257 = test: Cytotoxicity against human UACC257 cells assessed as growth inhibition after 48 hrs by sulforhodamine B assay; format: functional; details: UACC-257, 48 h
A549 = test: Cytotoxicity against human A549/ATCC cells assessed as growth inhibition after 48 hrs by sulforhodamine B assay; format: functional; details: A549, 48 h
RPMI-8226 = test: Cytotoxicity against human RPMI8226 cells assessed as cell growth at 100 uM after 48 hrs by sulforhodamine B assay relative to control; format: functional; details: RPMI-8226, 48 h, read-out: Activity

COc1cc2c(cc1OC)C(=O)/C(=C/c1cc(-c3ccc4c(c3)OCO4)n[nH]1)C2
growth at 10 µM (DU-145): -92%
growth at 1 µM (KM12 [1]): 67%
growth at 10 µM (T47D): -90%
growth at 10 µM (UO-31): -91%
growth at 10 µM (MCF7 [2]): -84%
growth at 1 µM (SK-OV-3 [3]): 109%
growth at 10 µM (MDA-MB-468 [4]): -87%
growth at 0.1 µM (RXF 393 [5]): 82%
growth at 0.01 µM (SNB-75): 85%
growth at 0.01 µM (Malme-3M [6]): 93%
growth at 100 µM (KM12 [7]): -80%
growth at 0.1 µM (HCT-116 [8]): 105%
growth at 1 µM (SNB-19 [9]): 84%
growth at 100 µM (Malme-3M [10]): -81%
growth at 10 µM (COLO 205 [11]): -97%
growth at 1 µM (K562): 62%
growth at 100 µM (RXF 393 [12]): -92%
growth at 0.01 µM (KM12 [13]): 100%
growth at 100 µM (NCI/ADR-RES [14]): -40%
GI50 (COLO 205 [15]): 1.7 µM
LC50 (COLO 205 [15]): 5.68 µM
TGI (COLO 205 [15]): 3.11 µM
growth at 0.1 µM (MDA-MB-468 [16]): 83%
pIC50 (MCF7 [17]): 5.99
growth at 0.1 µM (NCI/ADR-RES [18]): 100%
GI50 (SK-OV-3 [19]): 2.89 µM
LC50 (SK-OV-3 [19]): 25.2 µM
TGI (SK-OV-3 [19]): 7.16 µM
growth at 10 µM (MDA-MB-435): -88%
growth at 100 µM (SR): -22%
growth at 10 µM (SN12C): -96%
GI50 (NCI-H522): 0.25 µM
LC50 (NCI-H522): 3.92 µM
TGI (NCI-H522): 0.871 µM
growth at 1 µM (HCT-116 [20]): 51%
growth at 100 µM (SNB-19 [21]): -94%
growth at 0.01 µM (U-251): 97%
growth at 100 µM (NCI-H460): -67%
growth at 1 µM (BT-549): 88%
GI50 (UACC-257): 1.71 µM
LC50 (UACC-257): 5.72 µM
TGI (UACC-257): 3.13 µM
GI50 (A549): 1.96 µM
LC50 (concentration giving 50% net cell kill) (A549): 37.1 µM
TGI (A549): 5.45 µM
growth at 100 µM (RPMI-8226): -54%

— ChEMBL document CHEMBL4138123, “Design, synthesis and biological evaluation of novel pyrazolochalcones as potential modulators of PI3K/Akt/mTOR pathway and inducers of apoptosis in breast cancer cells” (Eur J Med Chem, 2017)
